# Source: patent US8008324B2, “Indole derivatives and their use as medicament” (AEterna Zentaris GmbH, priority 2000, dated 2011)
# Key:
# [1] = tested on: human breast adenocarcinoma line MCF7 (ATCC HTB22); assay: XTT proliferation test, MCF7; assay type: cell-based
# Experimental: (§1) In a proliferation test, the antiproliferative activity of the substance D-69429 was examined using established tumor cell lines. In the test used, the cellular dehydrogenation activity is determined, which makes it possible to determine the vitality of the cell and, indirectly, the cell count. The cell lines used are the human cervical carcinoma cell line KB/HeLa (ATCC CCL17), the murine lymphocyte a leukaemia L1210 (ATCC CCL-219), the human breast adenocarcinoma line MCF7 (ATCC HTB22) and the ovary adenocarcinoma line SKOV-3 (ATCC HTB77). These are established cell lines which are very well characterized and were obtained from ATCC and cultured.
# (§2) The adherently growing tumor cell lines HeLa/KB, SKOV-3 and MCF7 and the L1210 leukaemia line, which grows in suspension, were cultivated under standard conditions in an incubator with gas inlet at 37° C., 5% CO2 and 95% atmospheric humidity. […]
# (§3) For the XTT assay, 1 mg/ml of XTT (sodium 3′-[1-(phenylaminocarbonyl)-3,4-tetrazolium]-bis(4-methoxy-6-nitro)benzenesulfonic acid) is dissolved in RPMI-1640 medium without Phenol Red. […] The cell plates are then incubated in the incubator with gas inlet for a further 3 h, and the optical density (OD490nm) is determined in a photometer.
# (§4) Using the OD490nm obtained, the inhibition in percent relative to the control is calculated. […]
# [2] = tested on: ovary adenocarcinoma line SKOV-3 (ATCC HTB77); assay: XTT proliferation test, SKOV-3; assay type: cell-based, human; settings: SKOV-3, eight substance concentrations
# Experimental: as §1, §2, §3, §4
# [3] = tested on: murine lymphocyte leukaemia L1210 (ATCC CCL-219); assay: XTT proliferation test, L1210; assay type: cell-based; settings: L-1210, eight substance concentrations
# Experimental: as §1, §2, §3, §4
# [4] = tested on: human cervical carcinoma cell line KB/HeLa (ATCC CCL17); assay: XTT proliferation test, KB/HeLa; assay type: cell-based; settings: eight substance concentrations
# Experimental: as §1, §2, §3, §4
smiles,measurement,setting,value
"Cc1ccc2cc(NC(=O)C(=O)c3cn(Cc4ccc(Cl)cc4)c4ccccc34)ccc2n1 [Example D-69429, N-(2-methyl-6-quinolyl)-[1-(4-chlorobenzyl)indole-3-yl]glyoxylamide]",inhibition at 3.16 µg/mL,"[1]; MCF7, at 3.16 μg/ml, test period 48 h",18%
same,IC50,"[1]; MCF7, test period 48 h, regression analysis, read-out: antiproliferative activity (stated as >3.16)",> 3.16 µg/mL
same,antiproliferative action,[2],highly potent antiproliferative action
same,antiproliferative action,[3],highly potent antiproliferative action
same,antiproliferative action,[4],highly potent antiproliferative action
same,melting point,,182 to 185 °C
